Results: paper PMC4791210 (International immunopharmacology, 2015)

Tests used:
[1] = system: fMLF-stimulated neutrophils; settings: list of responses inhibited; ref per compound in References column of Table 1; cited from earlier work
monocytes = settings: read-out: IC50, inhibition of fMLF-induced monocyte locomotion; cited from earlier work
FPR1 [2] = settings: cited from earlier work
FPR1 [3] = biological target: T1, FPR1 (Homo sapiens, UniProt P21462); settings: read-out: IC50, displacement of [3H]-fMLF; FPR1-transfected RBL cells; cited from earlier work
T1 sequence (P21462 1-350): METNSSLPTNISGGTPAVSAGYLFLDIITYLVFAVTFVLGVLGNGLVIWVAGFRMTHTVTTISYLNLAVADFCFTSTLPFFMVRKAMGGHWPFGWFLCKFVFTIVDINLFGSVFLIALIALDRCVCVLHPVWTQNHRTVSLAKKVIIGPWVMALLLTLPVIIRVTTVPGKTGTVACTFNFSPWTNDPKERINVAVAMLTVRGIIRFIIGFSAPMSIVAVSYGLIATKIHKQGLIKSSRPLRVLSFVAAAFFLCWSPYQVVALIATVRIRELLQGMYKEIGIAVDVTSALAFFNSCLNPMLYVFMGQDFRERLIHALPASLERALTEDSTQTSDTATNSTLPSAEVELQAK

FPR2 = settings: cited from earlier work
[4] = animal experiments; cited from earlier work
[5] = animal experiments; cited from earlier work; remark: listed apart in the source
human neutrophils [6] = settings: cited from earlier work; for Inhibition of fMLF-induced Ca2+ mobilization in human neutrophils / Inhibition of fMLF-induced Ca2+ flux in neutrophils: result in words
FPR1 [7] = settings: read-out: IC50, blocking of fMLF binding to FPR1; cited from earlier work
FPR1 [8] = biological target: T1, FPR1; settings: result in words; cited from earlier work
[9] = system: fMLF-stimulated neutrophils; settings: result in words; cited from earlier work
rat neutrophils = settings: fMLF-stimulated rat neutrophils, cited from earlier work
human neutrophils [10] = settings: result in words; no data shown; cited from earlier work
FPR1 [11] = biological target: T1, FPR1; settings: cited from earlier work
FPR1 [12] = biological target: T1, FPR1; settings: result in words; no data shown; cited from earlier work
FPR1 [13] = biological target: T1, FPR1; settings: human neutrophils; cited from earlier work
human neutrophils [14] = test: Direct activation of Ca2+ flux in human neutrophils; format: cell-based; settings: Neutrophil, read-out: Human Neutrophils Activation (EC50, μM)
FPR1 [15] = biological target: T1, FPR1; test: Direct activation of Ca2+ flux in FPR1 transfected HL-60 cells; format: cell-based
neutrophils = settings: read-out: IC50, inhibition of fMLF-stimulated neutrophil degranulation; cited from earlier work
FPR1 [16] = settings: high concentrations; cited from earlier work

Molecule: CC(C)=CCc1c(O)ccc2ccc(=O)oc12 [Osthenol]
- fMLF-induced Responses Inhibited in Neutrophils [1]: O2^−· production, HNE release

Molecule: (+)-Episesamin
- fMLF-induced Responses Inhibited in Neutrophils [1]: O2^−· production, HNE release

Molecule: COc1cc2oc(=O)ccc2c2c1C=CC(C)(C)O2 [Alloxanthoxyletin]
- fMLF-induced Responses Inhibited in Neutrophils [1]: O2^−· production, HNE release

Molecule: C=CCc1ccc(O)c(-c2cc(O)ccc2O)c1 [Randaiol]
- fMLF-induced Responses Inhibited in Neutrophils [1]: O2^−· production and HNE release

Molecule: C=C1[C@H]2[C@@H]([C@@H](C(C)C)C[C@@H]1O)[C@H]1O[C@@H]2C[C@](C)(O)[C@@H](OC(=O)Cc2ccccc2)CC[C@@]1(C)OC(=O)CCC [Klymollin M]
- fMLF-induced Responses Inhibited in Neutrophils [1]: O2^−· production, HNE release

Molecule: CC1(C)C=Cc2cc3ccc(=O)oc3cc2O1 [Xanthyletin]
- fMLF-induced Responses Inhibited in Neutrophils [1]: O2^−· Production, HNE release

Molecule: Berryammone A
- fMLF-induced Responses Inhibited in Neutrophils [1]: O2^−· production, HNE release

Molecule: cyclized SRSRY: cyclized form of urokinase receptor-derived peptide Ser-Arg-Ser-Arg-Tyr (not fully specified; cyclized; printed: Ser-Arg-Ser-Arg-Tyr)
- IC50 (monocytes): 0.01 nM
- Binding of FITC-labeled fMLF to FPR1 transfected cells (FPR1 [2]): inhibited binding

Molecule: cyclosporine A [CsA]
- IC50 (FPR1 [3]): 1800 nM
- Inhibitory effects on FPR2-mediated cellular functions (FPR2): did not exhibit any obvious inhibitory effects

Molecule: C=C(C)[C@@H](CC=C(C)C)C[C@@]12C[C@@H](CC=C(C)C)C(C)(C)[C@]3(C=CC(C)(C)OC3=C(C(=O)c3ccccc3)C1=O)C2=O [Garcimultiflorone B]
- fMLF-induced Responses Inhibited in Neutrophils [1]: O2^−· production, HNE release

Molecule: Berryammone B
- fMLF-induced Responses Inhibited in Neutrophils [1]: O2^−· production, HNE release

Molecule: CC(=O)OCC(Cc1ccccc1)NC(=O)C(Cc1ccccc1)NC(=O)c1ccccc1 (centres unmarked) [Aurantiamide acetate, aurantiamide acetate]
- fMLF-induced Responses Inhibited in Neutrophils [1]: O2^−· production

Molecule: Cc1cc2ccc3c(c2cc1O)CCC(=O)C3(C)C [Flueggrene A]
- fMLF-induced Responses Inhibited in Neutrophils [1]: O2^−· production, HNE release

Molecule: cyclosporine H [CsH]
- Inhibitory effects on FPR2-mediated cellular functions (FPR2): did not exhibit any obvious inhibitory effects
- Effect on fMLF-induced analgesia [4]: blocked
- Effect on acute inflammatory response evoked by cigarette smoke [5]: attenuated

Molecule: O=c1c(-c2ccc(O)cc2)coc2cc(O)ccc12 [daidzein]
- Inhibition of fMLF-induced Ca2+ mobilization in human neutrophils (human neutrophils [6]): none

Molecule: COc1c(O)ccc2c1cnc1c3cc4c(cc3ccc21)OCO4 [Decarine]
- fMLF-induced Responses Inhibited in Neutrophils [1]: O2^−· production, HNE release

Molecule: COc1c2ccoc2cc2oc(=O)ccc12 [Bergapten]
- fMLF-induced Responses Inhibited in Neutrophils [1]: O2^−· production, HNE release

Molecule: COC(=O)C(C)CCC[C@]1(C)CC[C@]2(O1)C(=O)C(C)=C(C)[C@@]2(O)C(C)=O (some centres unmarked) [Hirsutocospiro A]
- fMLF-induced Responses Inhibited in Neutrophils [1]: O2^−· production, HNE release

Molecule: COc1ccc(C[C@H]2COC(=O)[C@@H]2Cc2ccc(O)c(O)c2)cc1OC [Lignan PP-6, (2R, 3R)-2-(3′,4′-dihydroxybenzyl)-3-(3″,4″-dimethoxybenzyl)butyrolactone]
- IC50 (FPR1 [7]): ~1500 nM

Molecule: O=c1c(-c2ccc(O)cc2)coc2cc(O)cc(O)c12 [genistein]
- Inhibition of fMLF-induced Ca2+ flux in FPR1-HL60 cells (FPR1 [8]): did not antagonize
- Inhibition of fMLF-induced Ca2+ mobilization in human neutrophils (human neutrophils [6]): none and did not antagonize

Molecule: CC1(C)CC[C@]2(C(=O)O)CC[C@]3(C)C(=CC[C@@H]4[C@@]5(C)CC[C@H](O)C(C)(C)[C@@H]5CC[C@]43C)[C@@H]2C1 [Oleanolic acid]
- fMLF-induced Responses Inhibited in Neutrophils [1]: O2^−· production, HNE release

Molecule: COc1ccc(CCN(C)C(=O)/C=C/c2ccc(O)cc2)cc1 [Ailanthamide]
- fMLF-induced Responses Inhibited in Neutrophils [1]: O2^−· production, HNE release

Molecule: COC1=CC(=O)c2cc(-c3ccc(OC)c(O)c3)c3cc(O)c(OC)cc3c2C1=O [Pterolinus K]
- fMLF-induced Responses Inhibited in Neutrophils [1]: O2^−· production, HNE release

Molecule: COc1cc(CCCc2c(OC)cc(O)c(OC)c2OC)ccc1O [Viscolin]
- Inhibition of fMLF-induced Ca2+ flux in neutrophils (human neutrophils [6]): did not inhibit

Molecule: C/C(=C/Cc1c(O)cc2oc(C)cc(=O)c2c1O)CO [Cnidimol A]
- fMLF-induced Responses Inhibited in Neutrophils [1]: O2^−· production, HNE release

Molecule: C=C(C)[C@@H]1CC[C@]2(C(=O)O)CC[C@]3(C)[C@H](CC[C@@H]4[C@@]5(C)CC[C@H](O)C(C)(C)[C@@H]5CC[C@]43C)[C@@H]12 [betulinic acid]
- Effect on fMLF-induced release of HNE [9]: did not affect

Molecule: hecogenin
- Concentrations that inhibited O2−· production (rat neutrophils): 30 to 100 µM

Molecule: C[C@H](CCC(=O)NCCS(=O)(=O)O)[C@H]1CC[C@H]2[C@@H]3[C@@H](O)C[C@@H]4C[C@H](O)CC[C@]4(C)[C@H]3CC[C@]12C [tauroursodeoxycholic acid]
- IC50 (human neutrophils [6]; read-out: IC50, inhibition of fMLF-induced Ca2+ mobilization): ~500 µM

Molecule: Lawsonaphthoate A
- fMLF-induced Responses Inhibited in Neutrophils [1]: O2^−· production, HNE release

Molecule: Aristolatams IIIa
- fMLF-induced Responses Inhibited in Neutrophils [1]: O2^−· production, HNE release

Molecule: COc1ccc(-c2coc3cc(O)cc(O)c3c2=O)cc1 [Biochanin A]
- Direct agonist activity in primary neutrophils (human neutrophils [10]): direct agonist activity
- Inhibition of fMLF-induced Ca2+ flux in FPR1-HL60 cells (FPR1 [8]): inhibited
- Inhibition of fMLF-induced Ca2+ mobilization in human neutrophils (human neutrophils [6]): inhibited
- Inhibition of binding of labeled ligand (WKYMVm-FITC) to FPR1-HL60 cells (FPR1 [11]): did not inhibit binding
- Direct agonist activity in FPR1-HL60 cells (FPR1 [12]): direct agonist activity

Molecule: C=C(CO)[C@@H]1CC[C@]2(C)CC[C@]3(C)[C@H](CC[C@@H]4[C@@](C)(CC(=O)O)[C@H](C(C)(C)C(=O)O)CC[C@]43C)[C@@H]12 [Triterpene 17, 30-hydroxy-2,3-seco-lup-20(29)-ene-2,3-dioic acid]
- fMLF-induced Responses Inhibited in Neutrophils [1]: O2^−· production, HNE release

Molecule: C=C(C)C(O)Cc1c(O)ccc2ccc(=O)oc12 (centres unmarked) [Demethylauraptenol]
- fMLF-induced Responses Inhibited in Neutrophils [1]: O2^−· production, HNE release

Molecule: C=C(C)[C@@H]1CC[C@]2(C(=O)O)CC[C@]3(C)[C@H](CC[C@@H]4[C@@]5(C)CC[C@@H](O)C(C)(C)[C@@H]5CC[C@]43C)[C@@H]12 [Epibetulinic acid]
- fMLF-induced Responses Inhibited in Neutrophils [1]: O2^−· production

Molecule: COc1cc(O)c2c(=O)c(OC)c(-c3ccc(O)c(OC)c3)oc2c1 [MSF-2, 5-hydroxy-2-(4-hydroxy-3-methoxyphenyl)-3,7-dimethoxy-4H-chromen-4-one]
- Interference with fMLF binding (FPR1 [13]): did not interfere

Molecule: COc1ccc(-c2coc3cc(O)ccc3c2=O)cc1 [formononetin]
- Inhibition of fMLF-induced Ca2+ mobilization in human neutrophils (human neutrophils [6]): none

Molecule: CC[C@H](CC[C@@H](C)[C@H]1CC[C@H]2[C@@H]3CC(=O)C4=CC(=O)CC[C@]4(C)[C@H]3CC[C@]12C)C(C)C [stigmast-4-ene-3,6-dione]
- Concentrations that inhibited O2−· production (rat neutrophils): 30 to 100 µM

Molecule: CC(C)=CCOc1c2occc2cc2ccc(=O)oc12 [Imperatorin]
- fMLF-induced Responses Inhibited in Neutrophils [1]: O2^−· production
- EC50 (human neutrophils [14]): 31.1 ± 3.6 µM
- EC50 (FPR1 [15]): 50.9 ± 4.7 µM

Molecule: COc1ccc(-c2coc3cc(O)c(OC)cc3c2=O)cc1 [afrormosin]
- IC50 (neutrophils): ~67 µM
- Inhibition of fMLF-induced Ca2+ mobilization in human neutrophils (human neutrophils [6]): none

Molecule: COc1c(O)c(OC)c2c(c1OC)O[C@H](c1ccccc1)CC2=O [isopedicin]
- Inhibition of fMLF-induced Ca2+ flux in neutrophils (human neutrophils [6]): did not inhibit

Molecule: Lawsochylin A
- fMLF-induced Responses Inhibited in Neutrophils [1]: O2^−· production, HNE release

Molecule: C[C@H](CCC(=O)O)[C@H]1CC[C@H]2[C@@H]3CC[C@@H]4C[C@H](O)CC[C@]4(C)[C@H]3C[C@H](O)[C@]12C [Deoxycholic acid (DCA), Deoxycholic acid]
- Concentrations that antagonize FPR1 and inhibit 3H-fMLF binding (FPR1 [16]): ≥ 100 µM
- EC50 (human neutrophils [14]): 49 ± 5.4 µM
- EC50 (FPR1 [15]): 40.9 ± 5.5 µM

Molecule: CC[C@H](CC[C@@H](C)[C@H]1CC[C@H]2[C@@H]3CC(=O)C4CC(=O)CC[C@]4(C)[C@H]3CC[C@]12C)C(C)C (some centres unmarked) [stigmastane-3,6-dione]
- Inhibition of O2−· production (rat neutrophils; result in words): non-active

Molecule: O=c1c(-c2ccccc2)coc2cc(O)ccc12 [7-hydroxyisoflavone]
- Inhibition of fMLF-induced Ca2+ mobilization in human neutrophils (human neutrophils [6]): none

Molecule: COc1c(C(=O)CCc2ccccc2)c(O)c(O)c2c1/C(=C/c1ccccc1)C(=O)O2 [bractelactone]
- Inhibition of fMLF-induced Ca2+ flux in neutrophils (human neutrophils [6]): did not inhibit
